# Measurements as given in patent publication US20250197387A1, “BCL-XL DEGRADERS AND USES THEREOF” (Kymera Therapeutics, Inc., priority 2021, published 2025).
# pIC50: −log10 of the molar value.
# Assays:
# Assay type in all cases: cell-based
# [1] = test system: MOLT-4 cells; test: CTG (CellTiter-Glo) cell viability assay, MOLT-4; conditions: Homo sapiens, MOLT-4, 72 h, 3 day incubation, read-out: CTG Cell Viability Assay - MOLT-4 3 day: Average external-IC50
# How it was run: (§1)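 MOLT-4 and Caki-2 cells were seeded at 10,000 per well and treated with a 9-point, 1:3 dilution series from 10 μM top concentration (0.2% DMSO). After 3 days at 37 °C, 5% CO2, viability was read by CellTiter-Glo luminescence and IC50 fitted by three-parameter logistic.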
# [2] = biological target: T1, BCL-XL (Homo sapiens, UniProt Q07817); test: BCL-XL degradation assay, western blot in MOLT-4 cells, 16 h; conditions: western blot, MOLT-4 cells, 16 h; for Dmax: read-out: Bcl-xL WB in MOLT-4 degradation 16 h: Average Dmax %; for DC50: read-out: Bcl-xL WB in MOLT-4 degradation 16 h: Mean external-Abs DC50
# T1 construct: endogenous in cells; host or cells: MOLT-4
# How it was run: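 MOLT-4 cells treated with compounds at 0.02-10 μM final for 16 hr at 37° C; lysates analysed by western blot with anti-BCL-xL, beta-actin and GAPDH loading controls, infrared imaging and densitometry; DC50 and Dmax % reported as letter codes.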
# [3] = test system: Caki-2 cells; test: CTG (CellTiter-Glo) cell viability assay, Caki-2; conditions: Homo sapiens, 72 h, 3 day incubation, read-out: CTG Chempartner - Caki-2 3 day: Average external-IC50
# How it was run: as §1
# [4] = biological target: T1, BCL-XL; test: Bcl-xL ELISA degradation in MOLT-4 cells, 6 h; conditions: for DC50: read-out: Bcl-xL ELISA in MOLT-4 degradation 6 h: Mean external-Abs DC50
# Procedure: The letter codes for BCL-XL DC50 include: A (<0.01 μM); B (0.01-0.1 μM); C (>[…]); D (>0.5-1.0 μM); and E (>1.0 μM). The letter codes for Dmax % include A (>75%); B (50 to 75%); C (<50%).
# T1 sequence (Q07817 whole entry): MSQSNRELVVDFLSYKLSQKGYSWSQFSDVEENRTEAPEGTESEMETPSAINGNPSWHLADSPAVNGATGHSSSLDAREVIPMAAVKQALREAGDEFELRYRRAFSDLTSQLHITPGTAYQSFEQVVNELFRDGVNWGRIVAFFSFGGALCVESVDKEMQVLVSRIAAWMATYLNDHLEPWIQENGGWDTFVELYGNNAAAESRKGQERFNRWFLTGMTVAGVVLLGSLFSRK
Compound,pIC50 [1],Dmax [2],DC50 [2],pIC50 [3],Dmax [4],DC50 [4]
Cc1cc(N(C)c2ccc(-c3cnn(CC4CCCCC4)c3C)c(C(=O)NS(=O)(=O)CCCCCC(=O)N[C@H](C(=O)N3C[C@H](O)C[C@H]3C(=O)N[C@@H](C)c3ccc(-c4scnc4C)cc3)C(C)(C)C)n2)nnc1Nc1nc2ccccc2s1 [I-120],6.00 to 7.00,> 75%,10 to 100 nM,< 5.00,,
C#Cc1ccc(CNC(=O)[C@@H]2C[C@@H](O)CN2C(=O)[C@@H](NC(=O)CCCCS(=O)(=O)NC(=O)c2nc(N(C)c3cc(C)c(Nc4nc5ccccc5s4)nn3)ccc2-c2cnn(CC3CCCCC3)c2C)C(C)(C)C)cc1 [I-345],5.52 to 6.00,> 75%,100 to 500 nM,< 5.00,50 to 75%,100 to 500 nM
Cc1ncsc1-c1ccc([C@H](C)NC(=O)[C@@H]2C[C@@H](O)CN2C(=O)[C@@H](NC(=O)CCCCCCC(=O)N2CCN(CC3(C)CCC(c4ccc(Cl)cc4)=C(CN4CCN(c5ccc(C(=O)NS(=O)(=O)c6ccc(N[C@H](CCN7CCOCC7)CSc7ccccc7)c(S(=O)(=O)C(F)(F)F)c6)cc5)CC4)C3)CC2)C(C)(C)C)cc1 (some centres unmarked) [I-395],> 7.00,> 75%,< 10 nM,6.00 to 7.00,< 50%,10 to 100 nM
Cc1cc(N(C)c2ccc(-c3cnn(CC4CCCCC4)c3C)c(C(=O)NS(=O)(=O)CCCCC(=O)N[C@H](C(=O)N3C[C@H](O)C[C@H]3C(=O)N[C@@H](C)c3ccc(-c4scnc4C)cc3)C(C)(C)C)n2)nnc1Nc1nc2ccccc2s1 [I-353],5.52 to 6.00,> 75%,10 to 100 nM,< 5.00,> 75%,100 to 500 nM
C#Cc1ccc([C@H](CO)NC(=O)[C@@H]2C[C@@H](O)CN2C(=O)[C@@H](NC(=O)CCc2ccc(S(=O)(=O)NC(=O)c3nc(N4CCc5cccc(C(=O)Nc6nc7cccnc7s6)c5C4)ccc3-c3cnn(CC4CCCCC4)c3C)cc2)C(C)(C)C)cc1 [I-205],6.00 to 7.00,> 75%,< 10 nM,< 5.00,> 75%,10 to 100 nM
Cc1ncsc1-c1ccc([C@H](C)NC(=O)[C@@H]2C[C@@H](O)CN2C(=O)[C@@H](NC(=O)CCc2ccc(S(=O)(=O)NC(=O)c3nc(N4CCc5cccc(C(=O)Nc6nc7ccccc7s6)c5C4)ccc3-c3cnn(CC4CCCCC4)c3C)cc2)C(C)(C)C)cc1 [I-123],> 7.00,> 75%,< 10 nM,5.00 to 6.00,> 75%,10 to 100 nM
Cc1ncsc1-c1ccc([C@H](C)NC(=O)[C@@H]2C[C@@H](O)CN2C(=O)[C@H](NC(=O)CCCCCCCS(=O)(=O)NC(=O)c2nc(N3CCc4cccc(C(=O)Nc5nc6ccccc6s5)c4C3)ccc2-c2cnn(CC(C)C)c2C)C(C)(C)C)cc1 [I-179],6.00 to 7.00,> 75%,10 to 100 nM,< 5.00,> 75%,10 to 100 nM
Cc1ncsc1-c1ccc([C@H](C)NC(=O)[C@@H]2C[C@@H](O)CN2C(=O)[C@@H](NC(=O)CCCCCCCS(=O)(=O)NC(=O)c2nc(N3CCc4cccc(C(=O)Nc5nc6cccnc6s5)c4C3)ccc2-c2cnn(CC34CC5CC(CC(C5)C3)C4)c2C)C(C)(C)C)cc1 [I-141],> 7.00,> 75%,< 10 nM,5.00 to 6.00,,
Cc1ncsc1-c1ccc(CNC(=O)[C@@H]2C[C@@H](O)CN2C(=O)[C@@H](NC(=O)C2(F)CC2)C(C)(C)C)c(OCCCCCS(=O)(=O)NC(=O)c2nc(N3CCc4cccc(C(=O)Nc5nc6ccccc6s5)c4C3)ccc2-c2cnn(CC3CCCCC3)c2C)c1 [I-177],> 7.00,> 75%,< 10 nM,5.00 to 6.00,> 75%,10 to 100 nM
Cc1ncsc1-c1ccc([C@H](CC(=O)NCCCCCNC(=O)c2nc(N3CCc4cccc(C(=O)Nc5nc6ccccc6s5)c4C3)ccc2-c2cnn(CC3CCCCC3)c2C)NC(=O)[C@@H]2C[C@@H](O)CN2C(=O)[C@@H](NC(=O)C2(F)CC2)C(C)(C)C)cc1 [I-199],6.00 to 7.00,> 75%,10 to 100 nM,< 5.00,,
Cc1ncsc1-c1ccc(CNC(=O)[C@@H]2C[C@@H](O)CN2C(=O)[C@@H](NC(=O)CCCCCC(=O)N2CCN(CC[C@H](CSc3ccccc3)Nc3ccc(S(=O)(=O)NC(=O)c4ccc(N5CCN(CC6=C(c7ccc(Cl)cc7)CCC(C)(C)C6)CC5)cc4)cc3S(=O)(=O)C(F)(F)F)CC2)C(C)(C)C)cc1 [I-389],> 7.00,> 75%,10 to 100 nM,5.00 to 6.00,< 50%,> 1000 nM
Cc1ncsc1-c1ccc(CNC(=O)[C@@H]2C[C@@H](O)CN2C(=O)[C@@H](NC(=O)C2(F)CC2)C(C)(C)C)c(OCCN2CCN(C(=O)c3nc(N4CCc5cccc(C(=O)Nc6nc7ccccc7s6)c5C4)ccc3-c3cnn(CC4CCCCC4)c3C)CC2)c1 [I-201],6.00 to 7.00,> 75%,10 to 100 nM,< 5.00,,
Cc1ncsc1-c1ccc(CNC(=O)[C@@H]2C[C@@H](O)CN2C(=O)[C@@H](NC(=O)CCOCCOCCOCCOCCOCCOCC#Cc2ccc(OCCCc3sc(N4CCc5cccc(C(=O)Nc6nc7ccccc7s6)c5C4)nc3C(=O)O)cc2)C(C)(C)C)cc1 [I-383],6.00 to 7.00,> 75%,10 to 100 nM,5.00 to 6.00,> 75%,10 to 100 nM
Cc1ncsc1-c1ccc(CNC(=O)[C@@H]2C[C@@H](O)CN2C(=O)[C@@H](NC(=O)CCCS(=O)(=O)NC(=O)c2nc(N3CCc4cccc(C(=O)Nc5nc6cccnc6s5)c4C3)ccc2-c2cnn(CC3CCCCC3)c2C)C(C)(C)C)cc1 [I-351],< 5.52,50 to 75%,100 to 500 nM,< 5.00,> 75%,100 to 500 nM
Cc1cc([C@@H](C(=O)N2C[C@H](O)C[C@H]2C(=O)NCc2ccc(-c3scnc3C)cc2OCCCCCCNC(=O)c2nc(N3CCc4cccc(C(=O)Nc5nc6ccccc6s5)c4C3)ccc2-c2cnn(CC3CCCCC3)c2C)C(C)C)on1 [I-198],> 7.00,> 75%,10 to 100 nM,< 5.00,,
Cc1ncsc1-c1ccc([C@H](C)NC(=O)[C@@H]2C[C@@H](O)CN2C(=O)[C@@H](NC(=O)CCCCCCCCC(=O)N(C)CC#Cc2ccc(OCCCc3sc(N4CCc5cccc(C(=O)Nc6nc7ccccc7s6)c5C4)nc3C(=O)O)c(F)c2)C(C)(C)C)cc1 [I-384],6.00 to 7.00,> 75%,< 10 nM,5.00 to 6.00,,
Cc1ncsc1-c1ccc([C@H](C)NC(=O)[C@@H]2C[C@@H](O)CN2C(=O)[C@@H](NC(=O)c2ccc(CCS(=O)(=O)NC(=O)c3nc(N4CCc5cccc(C(=O)Nc6nc7ccccc7s6)c5C4)ccc3-c3cnn(CC4CCCCC4)c3C)cc2)C(C)(C)C)cc1 [I-143],> 7.00,> 75%,< 10 nM,5.00 to 6.00,,
Cc1ncsc1-c1ccc(CNC(=O)[C@@H]2C[C@@H](O)CN2C(=O)[C@@H](NC(=O)C2(F)CC2)C(C)(C)C)c(OCCC2CCN(CC[C@H](CSc3ccccc3)Nc3ccc(S(=O)(=O)NC(=O)c4ccc(N5CCN(CC6=C(c7ccc(Cl)cc7)CCC(C)(C)C6)CC5)cc4)cc3S(=O)(=O)C(F)(F)F)CC2)c1 [I-183],> 7.00,> 75%,< 10 nM,< 5.00,50 to 75%,100 to 500 nM
Cc1ncsc1-c1ccc(CNC(=O)[C@@H]2C[C@@H](O)CN2C(=O)[C@@H](NC(=O)C2(F)CC2)C(C)(C)C)c(OCCN2CCN(CC[C@H](CSc3ccccc3)Nc3ccc(S(=O)(=O)NC(=O)c4ccc(N5CCN(CC6=C(c7ccc(Cl)cc7)CCC(C)(C)C6)CC5)cc4)cc3S(=O)(=O)C(F)(F)F)CC2)c1 [I-394],> 7.00,> 75%,< 10 nM,< 5.00,50 to 75%,10 to 100 nM
Cc1ncsc1-c1ccc([C@H](C)NC(=O)[C@@H]2C[C@@H](O)CN2C(=O)[C@@H](NC(=O)C2CCN(c3ccc(S(=O)(=O)NC(=O)c4nc(N5CCc6cccc(C(=O)Nc7nc8ccccc8s7)c6C5)ccc4-c4cnn(CC5CCCCC5)c4C)cc3)CC2)C(C)(C)C)cc1 [I-195],> 7.00,> 75%,< 10 nM,5.00 to 6.00,> 75%,10 to 100 nM
Cc1ncsc1-c1ccc([C@H](C)NC(=O)[C@@H]2C[C@@H](O)CN2C(=O)[C@@H](NC(=O)CCCCCCNC(=O)c2nc(N3CCc4cccc(C(=O)Nc5nc6ccccc6s5)c4C3)ccc2-c2cnn(CC3CCCCC3)c2C)C(C)(C)C)cc1 [I-96],6.00 to 7.00,> 75%,10 to 100 nM,< 5.00,50 to 75%,10 to 100 nM
Cc1ncsc1-c1ccc([C@H](C)NC(=O)[C@@H]2C[C@@H](O)CN2C(=O)[C@@H](NC(=O)N2CC3(C2)CN(c2ccc(S(=O)(=O)NC(=O)c4nc(N5CCc6cccc(C(=O)Nc7nc8ccccc8s7)c6C5)ccc4-c4cnn(CC5CCCCC5)c4C)cc2)C3)C(C)(C)C)cc1 [I-196],6.00 to 7.00,50 to 75%,< 10 nM,5.00 to 6.00,,
